Earlier results as cited in paper PMC4559881 (Molecular Neurodegeneration, 2015).
Where two headings read alike, the source gives them in different places.

Assays:
[1] = cited from earlier work
CSF Aβ [2] = system: CSF Aβ; set-up: method as in PMID 22090477; conditions: dogs, oral dose of 5 mg/kg; cited from earlier work
brain Aβ = system: brain Aβ; set-up: method as in PMID 22090477; conditions: PDAPP mice, doses ≥ 30 mg/kg p.o.; cited from earlier work
CSF Aβ [3] = system: CSF Aβ; set-up: method as in PMID 22090477; conditions: healthy volunteers, cited from earlier work
[4] = human, in vivo; cited from earlier work
deposited Aβ = system: deposited Aβ; set-up: method as in PMID 25164658; conditions: APP London mice, 4 months of dosing, 30 mg/kg; cited from earlier work

CC1(C#Cc2cnc3c(c2)[C@]2(COC(N)=N2)c2cc(-c4cccnc4F)ccc2O3)COC1 [AMG-8718]
toxicity finding in rats ([1]; high doses): retinal toxicity

C[C@@]1(c2cc(-c3cncnc3)c(F)cc2F)CCSC(N)=N1 [LY2811376]
reduction of CSF Aβ (CSF Aβ [2]): approximately 70% | toxicity finding in rats [1]: neuronal lipofuscinosis and degeneration | reduction of brain Aβ (brain Aβ): > 60% | change of CSF Aβ (CSF Aβ [3]; oral dose 30 mg): -20% | change of CSF Aβ (CSF Aβ [3]; oral dose 90 mg): -54%

NC1=N[C@@]2(c3cc(NC(=O)c4ccc(F)cn4)ccc3F)COC[C@H]2CS1 [LY2886721]
liver finding in AD patients [4]: elevation of liver enzymes

C[C@]1(c2cc(NC(=O)c3ccc(C#N)cn3)ccc2F)N=C(N)OCC1(F)F [RO5508887]
reduction of total deposited Aβ40 (deposited Aβ): 28% | reduction of total deposited Aβ42 (deposited Aβ): 45%
